The record followed here is patent publication US20240217983A1, “GPR119 AGONISTS” (Kallyope, Inc., priority 2021, published 2024).

The target in the test is T1, human GPR119 (hGPR119) (Homo sapiens, UniProt Q8TDV5).
T1 construct: expressed in transfected cells
T1 sequence (Q8TDV5 1-335): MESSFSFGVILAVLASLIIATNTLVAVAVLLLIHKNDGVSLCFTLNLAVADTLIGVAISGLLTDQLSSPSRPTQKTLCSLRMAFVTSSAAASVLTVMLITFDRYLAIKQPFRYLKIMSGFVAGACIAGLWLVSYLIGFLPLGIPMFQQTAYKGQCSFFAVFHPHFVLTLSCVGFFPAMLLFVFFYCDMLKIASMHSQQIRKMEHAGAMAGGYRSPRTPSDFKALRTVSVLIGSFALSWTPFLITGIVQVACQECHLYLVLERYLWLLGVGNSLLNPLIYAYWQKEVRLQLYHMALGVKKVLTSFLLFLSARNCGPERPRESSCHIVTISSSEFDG
Description: cAMP accumulation assay (Cisbio cAMP Gs dynamic HTRF kit) in CHO-K1 cells stably expressing human GPR119. It is filed as cell-based. The settings on record: 4-parameter fit; for Emax: 1 h, % activity normalized to Max and Min controls; for EC50: 60 minutes at 37° C. On the procedure:
CHO-K1 cells stably expressing human GPR119 (hGPR119) were prepared by transfection of a GPR119-carrying plasmid using Lipofectamine 2000 (following manufacturer instructions). A stable cell line was established using the limiting dilution method with geneticine selection. Assay-ready frozen (ARF) cells were prepared and used throughout the study.
The assay was performed in a 384-well plate format using the cAMP Gs dynamic assay kit from Cisbio. ARF cells expressing hGPR119 were thawed, washed and then resuspended in cAMP stimulation buffer at a cell density of 1.1×10^6 cells/mL. Cells were plated at a density of ˜10,000 cells/well (9 μL/well). Dose response curves for the tested compounds were prepared in a cAMP stimulation buffer, containing 0.1% Tween 80 at 4 fold the final concentration. The compounds were then transferred to the cell plates using BRAVO (3 μL/well) and the plates were incubated for 60 minutes at 37° C./5% CO2. Detection buffer (10 μL, prepared as described in the cAMP Gs dynamic kit) were added to each well, and the plates were incubated at ambient temperature for 1 hr.
RT-FRET was measured using a ClarioSTAR plate reader, calculating the ratio between emissions at 665 nm and 620 nm (HTRF ratio). The HTRF ratio for positive (Max) and negative (Min) controls were used to normalize HTRF data and generate values for % activity. EC50 and Max activity values were determined using a standard 4-parameter fit.
For orientation: Cyclic AMP is a second messenger, typically raised through Gs and lowered through Gi signalling.

Counter-ions that a name gives are not always drawn.

One may read the Emax as the greatest response seen or fitted, relative to the assay's reference. A word on the EC50: it is the concentration needed to bring the measured effect to its halfway point. The low end stands for an effect from little substance, the high end for a need for much substance. In the case of `O=C(CCCCS(=O)(=O)O)N1CC2CC(C1)N2C(=O)Cc1ccc(OCCCC2CCN(c3ncc(Cl)cn3)CC2)cc1F` [Example 16, 5-(6-(2-(4-(3-(1-(5-chloropyrimidin-2-yl)piperidin-4-yl)propoxy)-2-fluorophenyl)acetyl)-3,6-diazabicyclo[3.1.1]heptan-3-yl)-5-oxopentane-1-sulfonic acid], the Emax fell in the range of 100 to 130% and the half-maximal effective concentration (EC50) was at most 100 nM.

`O=C(CCCCS(=O)(=O)O)N1CCN(C(=O)Cc2ccc(OCCCC3CCN(c4ncc(Cl)cn4)CC3)cc2F)C2CC21` (centres unmarked) [Example 17, 5-(5-(2-(4-(3-(1-(5-chloropyrimidin-2-yl)piperidin-4-yl)propoxy)-2-fluorophenyl)acetyl)-2,5-diazabicyclo[4.1.0]heptan-2-yl)-5-oxopentane-1-sulfonic acid] displayed an Emax of 100 to 130% and an EC50 of 100 to 1000 nM.

Compound `O=C(Cc1ccc(OCCCC2CCN(c3ncc(Cl)cn3)CC2)cc1F)N1CC2(CCCN2C(=O)CCCCS(=O)(=O)O)C1` [Example 18, 5-(2-(2-(4-(3-(1-(5-chloropyrimidin-2-yl)piperidin-4-yl)propoxy)-2-fluorophenyl)acetyl)-2,5-diazaspiro[3.4]octan-5-yl)-5-oxopentane-1-sulfonic acid] came in with an Emax of 100 to 130% and a half-maximal effective concentration (EC50) of at most 100 nM.

Regarding `O=C(Cc1ccc(OCCCC2CCN(c3ncc(Cl)cn3)CC2)cc1F)N1CC2(C1)N(C(=O)CCCCS(=O)(=O)O)CC2(F)F` [Example 19, 5-(6-(2-(4-(3-(1-(5-chloropyrimidin-2-yl)piperidin-4-yl)propoxy)-2-fluorophenyl)acetyl)-3,3-difluoro-1,6-diazaspiro[3.3]heptan-1-yl)-5-oxopentane-1-sulfonic acid], the Emax was in the range of 100 to 130% and the EC50 is at most 100 nM.

Compound `O=C(Cc1ccc(OCCCC2CCN(c3ncc(Cl)cn3)CC2)cc1F)N1C[C@H]2CCN(C(=O)CCCCS(=O)(=O)O)[C@H]2C1` [Example 20, 5-((3aR,6aR)-5-(2-(4-(3-(1-(5-chloropyrimidin-2-yl)piperidin-4-yl)propoxy)-2-fluorophenyl)acetyl)hexahydropyrrolo[3,4-b]pyrrol-1(2H)-yl)-5-oxopentane-1-sulfonic acid] showed a maximum response (Emax) of 100 to 130% and an EC50 of at most 100 nM.

As to `O=C(Cc1ccc(OCCCC2CCN(c3ncc(Cl)cn3)CC2)cc1F)N1CCC2(CC1)CCN2C(=O)CCCCS(=O)(=O)O` [Example 21, 5-(7-(2-(4-(3-(1-(5-chloropyrimidin-2-yl)piperidin-4-yl)propoxy)-2-fluorophenyl)acetyl)-1,7-diazaspiro[3.5]nonan-1-yl)-5-oxopentane-1-sulfonic acid], the maximum response (Emax) is 100 to 130% and the EC50 is at most 100 nM.

For `O=C(Cc1ccc(OCCCC2CCN(c3ncc(Cl)cn3)CC2)cc1F)N1CCC2(CC1)CN(C(=O)CCCCS(=O)(=O)O)C2` [Example 22, 5-(7-(2-(4-(3-(1-(5-chloropyrimidin-2-yl)piperidin-4-yl)propoxy)-2-fluorophenyl)acetyl)-2,7-diazaspiro[3.5]nonan-2-yl)-5-oxopentane-1-sulfonic acid], the Emax was in the range of 100 to 130% and the concentration for a half-maximal effect (EC50) was in the range of 100 to 1000 nM.

Take `O=C(CCCCS(=O)(=O)O)N1CCN(C(=O)Cc2ccc(OCCCC3CCN(c4ncc(Cl)cn4)CC3)cc2F)CC1` [Example 23, 5-(4-(2-(4-(3-(1-(5-chloropyrimidin-2-yl)piperidin-4-yl)propoxy)-2-fluorophenyl)acetyl)piperazin-1-yl)-5-oxopentane-1-sulfonic acid]: the Emax lay in the range of 100 to 130% and the 50% effective concentration (EC50) is at most 100 nM.

Compound `O=C(CCCCS(=O)(=O)O)N1CCOC2(CCN(C(=O)Cc3ccc(OCCCC4CCN(c5ncc(Cl)cn5)CC4)cc3F)C2)C1` (centres unmarked) [Example 24, 5-(2-(2-(4-(3-(1-(5-chloropyrimidin-2-yl)piperidin-4-yl)propoxy)-2-fluorophenyl)acetyl)-6-oxa-2,9-diazaspiro[4.5]decan-9-yl)-5-oxopentane-1-sulfonic acid] yielded an Emax of 100 to 130% and an EC50 of at most 100 nM.

Consider `O=C(Cc1ccc(OCCCC2CCN(c3ncc(Cl)cn3)CC2)cc1F)N1CC2(CN(C[C@H](O)[C@H](O)[C@H](O)CO)C2)C1` [Example 25, 2-(4-(3-(1-(5-chloropyrimidin-2-yl)piperidin-4-yl)propoxy)-2-fluorophenyl)-1-(6-((2S,3S,4R)-2,3,4,5-tetrahydroxypentyl)-2,6-diazaspiro[3.3]heptan-2-yl)ethan-1-one formate], for which the maximal effect (Emax) was in the range of 50 to 100% and the EC50 was above 10000 nM.

Take `O=C(Cc1ccc(OCCCC2CCN(c3ncc(Cl)cn3)CC2)cc1F)N1CC2(CN(C[C@H](O)[C@@H](O)[C@H](O)[C@H](O)CO)C2)C1` [Example 26, 2-(4-(3-(1-(5-chloropyrimidin-2-yl)piperidin-4-yl)propoxy)-2-fluorophenyl)-1-(6-((2S,3R,4R,5R)-2,3,4,5,6-pentahydroxyhexyl)-2,6-diazaspiro[3.3]heptan-2-yl)ethan-1-one]: the maximum response (Emax) was 100 to 130% and the EC50 is at most 100 nM.

In turn, `O=C(Cc1ccc(OCCCC2CCN(c3ncc(Cl)cn3)CC2)cc1F)N1CCN(C[C@H](O)[C@@H](O)[C@H](O)[C@H](O)CO)CC1` [Example 27, 2-(4-(3-(1-(5-chloropyrimidin-2-yl)piperidin-4-yl)propoxy)-2-fluorophenyl)-1-(4-((2S,3R,4R,5R)-2,3,4,5,6-pentahydroxyhexyl)piperazin-1-yl)ethan-1-one] registered a maximal response (Emax) of 100 to 130% and an EC50 of at most 100 nM.

`O=C(Cc1ccc(OCCCC2CCN(c3ncc(Cl)cn3)CC2)cc1F)N1CCC2(CN(C[C@H](O)[C@H](O)[C@H](O)CO)C2)C1` [Example 28, 2-(4-(3-(1-(5-chloropyrimidin-2-yl)piperidin-4-yl)propoxy)-2-fluorophenyl)-1-(2-((2S,3S,4R)-2,3,4,5-tetrahydroxypentyl)-2,6-diazaspiro[3.4]octan-6-yl)ethan-1-one] yielded an Emax of 100 to 130% and a concentration giving a half-maximal response (EC50) of at most 100 nM.

`O=C(Cc1ccc(OCCCC2CCN(c3ncc(Cl)cn3)CC2)cc1F)N1CCC2(CN(C[C@H](O)[C@@H](O)[C@H](O)[C@H](O)CO)C2)C1` [Example 29, 2-(4-(3-(1-(5-chloropyrimidin-2-yl)piperidin-4-yl)propoxy)-2-fluorophenyl)-1-(2-((2S,3R,4R,5R)-2,3,4,5,6-pentahydroxyhexyl)-2,6-diazaspiro[3.4]octan-6-yl)ethan-1-one] had a maximal effect (Emax) of 100 to 130% and a concentration for a half-maximal effect (EC50) of at most 100 nM.

`O=C(Cc1ccc(OCCCC2CCN(c3ncc(Cl)cn3)CC2)cc1F)N1CCC2(CCN2C[C@H](O)[C@H](O)[C@H](O)CO)C1` (stereo partly drawn) [Example 30, 2-(4-(3-(1-(5-chloropyrimidin-2-yl)piperidin-4-yl)propoxy)-2-fluorophenyl)-1-(1-((2S,3S,4R)-2,3,4,5-tetrahydroxypentyl)-1,6-diazaspiro[3.4]octan-6-yl)ethan-1-one] yielded a maximum response (Emax) of 100 to 130% and an EC50 of at most 100 nM.

As for `O=C(Cc1ccc(OCCCC2CCN(c3ncc(Cl)cn3)CC2)cc1F)N1CCC2(CCN2C[C@H](O)[C@@H](O)[C@H](O)[C@H](O)CO)C1` (stereo partly drawn) [Example 31, 2-(4-(3-(1-(5-chloropyrimidin-2-yl)piperidin-4-yl)propoxy)-2-fluorophenyl)-1-(1-((2S,3R,4R,5R)-2,3,4,5,6-pentahydroxyhexyl)-1,6-diazaspiro[3.4]octan-6-yl)ethan-1-one], the maximal effect (Emax) lay within 100 to 130% and the EC50 is at most 100 nM.

In the case of `O=C(Cc1ccc(OCCCC2CCN(c3ncc(Cl)cn3)CC2)cc1F)N1CC2(CCN2C[C@H](O)[C@H](O)[C@H](O)CO)C1` [Example 32, 2-(4-(3-(1-(5-chloropyrimidin-2-yl)piperidin-4-yl)propoxy)-2-fluorophenyl)-1-(1-((2S,3S,4R)-2,3,4,5-tetrahydroxypentyl)-1,6-diazaspiro[3.3]heptan-6-yl)ethan-1-one], the maximal effect (Emax) was in the range of 100 to 130% and the concentration giving a half-maximal response (EC50) is at most 100 nM.

Turning to `O=C(Cc1ccc(OCCCC2CCN(c3ncc(Cl)cn3)CC2)cc1F)N1CC2(CCN2C[C@H](O)[C@@H](O)[C@H](O)[C@H](O)CO)C1` [Example 33, 2-(4-(3-(1-(5-chloropyrimidin-2-yl)piperidin-4-yl)propoxy)-2-fluorophenyl)-1-(1-((2S,3R,4R,5R)-2,3,4,5,6-pentahydroxyhexyl)-1,6-diazaspiro[3.3]heptan-6-yl)ethan-1-one], the Emax is 100 to 130% and the EC50 was at most 100 nM.

Regarding `O=C(Cc1ccc(OCCCC2CCN(c3ncc(Cl)cn3)CC2)cc1F)N1C[C@@H]2CCN(C[C@H](O)[C@H](O)[C@H](O)CO)[C@@H]2C1` [Example 34, 2-(4-(3-(1-(5-chloropyrimidin-2-yl)piperidin-4-yl)propoxy)-2-fluorophenyl)-1-((3aS,6aS)-1-((2S,3S,4R)-2,3,4,5-tetrahydroxypentyl)hexahydropyrrolo[3,4-b]pyrrol-5(1H)-yl)ethan-1-one], the Emax is at least 130% and the concentration for a half-maximal effect (EC50) is at most 100 nM.
